System: Bacillus subtilis ATCC 6633
Assay: Filter disc bioassay, zones of inhibition in B. subtilis lawn
Type: cell-based
Details: 10-fold dilution series of 1.1 mg in 200 μl methanol, 10 μl per filter disc; indicator strain Bacillus subtilis ATCC 6633
Protocol: Cosmid no 7 which has been isolated from a Streptomyces fradiae cosmid library, was kindly provided by J. Corts. E. coli transformants were selected with 100 ug/ml ampicillin. The Saccharopolyspora erythraea NRRL 2338-red variant strain (Hessler et al., Appl. Microbiol. Biotechnol. (1997) 47:398-404) was kindly provided by J. M. Weber and was routinely maintained on M1-102 agar (Kaneda et al. J. Biol. Chem. (1962) 237:322-327), R2T20 (Yamamoto et al. J. Antibiot. (1986) 34:1304-1313), R2T2 (same as R2T (Weber et al. J. Bacterial. (1985)164:425-433), but without peptone), and TSB (Difco) for liquid cultures at 30° C. Bacillus subtilis ATCC 6633 was used in bioassays to assess erythromycin production as described (Gaisser et al. (1997), supra). […] Both metabolites (10 μl of 10 mM stock solution) were applied to agar wells cut into the S. erythraea lawn and incubated at 30° C. overnight as described (Gaisser et al. (1997) supra) and the development of zones of inhibition in the B. subtilis lawn around S. erythraea colonies was assessed. […]
Bacillus subtilis ATCC 6633 was used in bioassays as described previously (Gaisser et al., 1998). […] The development of zones of inhibition in the B. subtilis lawn was assessed.

For CCC1OC(=O)C(C)C(OC2OC(C)C(O)C(O)C2OC)C(C)C(OC2OC(C)CC(N(C)C)C2O)C(C)(O)CC(C)C(=O)C(C)C(O)C1C (stereo not shown) [3-O-(2′-O-methylrhamnosyl)erythromycin D], the “bioactivity, fold less compared to erythromycin A (size of the halos around filter discs)” value was “about 100 fold”.

From US7482137B2, “Hybrid glycosylated products and their production and use” (Biotica Technology Limited, priority 2000, dated 2009)
